Measured values: patent US11690377B2, “Herbicidal composition and method of use thereof” (Belchim Crop Protection NV, priority 2017, dated 2023)

Legend:
Type in all cases: in vivo
[1] = system: ELEIN - Goosegrass (Eleusine indica); assay: Field trial, pre-emergence weed control in corn, ELEIN; conditions: mesotrione 3.85 oz/A, pyridate 6.84 oz/A, combination 3.85 + 6.84 oz/A
Description: Field trials were conducted in Tennessee and Illinois (USA). The crop and weed species had been seeded and/or drill sown. In the case of post-emergence evaluation, seeded and/or drill sown plants were grown to a certain growth stage before application of the active ingredients (alone or as a mixture). In the case of pre-emergence evaluation, the application of the active ingredients was carried out after the plants were seeded and/or drilled sown. The trial was in the form of a randomized complete block. The percentage of weed control was assessed in several different instances after treatment until a maximum of 42 days after treatment, by comparison with untreated control plots by visual scoring. The herbicidal action was assessed qualitatively and quantitatively. To quantify the synergic effect resulting from the combination of mesotrione and pyridate, the inventors used the methodology described by Colby, in which a synergistic effect exists when the activity of a composition comprising both active compounds is greater than the sum of the activities of the two active compounds applied individually. The expected activity for the combination of mesotrione and pyridate can be calculated by the following so-called “Colby equation” (see S. R. Colby, “Calculating Synergistic and Antagonistic Responses of Herbicide Combinations”, Weeds 1967, 15, 20-22). Pa+b=(Pa+Pb)−(Pa*Pb/100) Wherein • Pa+b is the expected percent inhibition of weed growth by the combination of mesotrione and pyridate; • Pa is the percent inhibition of weed growth induced by mesotrione; • Pb is the percent inhibition of weed growth induced by pyridate. If the actual percent inhibition of weed growth induced by the combination of mesotrione and pyridate is greater than the expected percent inhibition (Pa+b) calculated from the Colby equation, then the activity of the combination is synergistic. The below Tables represent the herbicidal performance of the composition according to the invention, and also the herbicidal performance of the active ingredients alone, in controlling specific weeds. The expected percent inhibition of weed growth (derived from the Colby's equation) and the actual (observed) percent inhibition of weed growth is also presented in order to conclude on the synergistic effect of the combination according to the invention. Pre-Emergence Herbicidal Performance of the Composition According to the Invention Against Broadleaf Weed in Corn.

[2] = system: IPOHE - Ivyleaf Morningglory (Ipomoea headrace); assay: Field trial, post-emergence weed control in corn, IPOHE
Description: (§1) Field trials were conducted in Tennessee and Illinois (USA). The crop and weed species had been seeded and/or drill sown. In the case of post-emergence evaluation, seeded and/or drill sown plants were grown to a certain growth stage before application of the active ingredients (alone or as a mixture). In the case of pre-emergence evaluation, the application of the active ingredients was carried out after the plants were seeded and/or drilled sown. The trial was in the form of a randomized complete block. The percentage of weed control was assessed in several different instances after treatment until a maximum of 42 days after treatment, by comparison with untreated control plots by visual scoring. The herbicidal action was assessed qualitatively and quantitatively. To quantify the synergic effect resulting from the combination of mesotrione and pyridate, the inventors used the methodology described by Colby, in which a synergistic effect exists when the activity of a composition comprising both active compounds is greater than the sum of the activities of the two active compounds applied individually. The expected activity for the combination of mesotrione and pyridate can be calculated by the following so-called “Colby equation” (see S. R. Colby, “Calculating Synergistic and Antagonistic Responses of Herbicide Combinations”, Weeds 1967, 15, 20-22). Pa+b=(Pa+Pb)−(Pa*Pb/100) Wherein • Pa+b is the expected percent inhibition of weed growth by the combination of mesotrione and pyridate; • Pa is the percent inhibition of weed growth induced by mesotrione; • Pb is the percent inhibition of weed growth induced by pyridate. If the actual percent inhibition of weed growth induced by the combination of mesotrione and pyridate is greater than the expected percent inhibition (Pa+b) calculated from the Colby equation, then the activity of the combination is synergistic. The below Tables represent the herbicidal performance of the composition according to the invention, and also the herbicidal performance of the active ingredients alone, in controlling specific weeds. The expected percent inhibition of weed growth (derived from the Colby's equation) and the actual (observed) percent inhibition of weed growth is also presented in order to conclude on the synergistic effect of the combination according to the invention. Post-Emergence Herbicidal Performance of the Composition According to the Invention Against Broadleaf Weed in Corn.

[3] = system: AMATA - Common Waterhemp (Amaranthus rudis); assay: Field trial, post-emergence weed control in corn, AMATA
Description: as §1

[4] = system: AMAPA - Palmer Pigweed (Amaranthus palmeri); assay: Field trial, post-emergence weed control in corn, AMAPA; conditions: mesotrione 3 oz/A, pyridate 6.84 oz/A, combination 3 + 6.84 oz/A
Description: as §1

[5] = 8 days after treatment, mesotrione 2 oz/A, pyridate 2 oz/A, combination 2 + 2 oz/A
[6] = 8 days after treatment, mesotrione 3 oz/A, pyridate 3 oz/A, combination 3 + 3 oz/A
[7] = 8 days after treatment, mesotrione 3 oz/A, pyridate 6.84 oz/A, combination 3 + 6.84 oz/A
[8] = 16 days after treatment, mesotrione 2 oz/A, pyridate 2 oz/A, combination 2 + 2 oz/A
[9] = 16 days after treatment, mesotrione 3 oz/A, pyridate 3 oz/A, combination 3 + 3 oz/A
[10] = 16 days after treatment, mesotrione 3 oz/A, pyridate 6.84 oz/A, combination 3 + 6.84 oz/A
[11] = 21 days after treatment, mesotrione 2 oz/A, pyridate 2 oz/A, combination 2 + 2 oz/A
[12] = 21 days after treatment, mesotrione 3 oz/A, pyridate 3 oz/A, combination 3 + 3 oz/A
[13] = 21 days after treatment, mesotrione 3 oz/A, pyridate 6.84 oz/A, combination 3 + 6.84 oz/A
[14] = 7 days after treatment, mesotrione 2 oz./A, pyridate 2 oz./A, combination 2 + 2 oz./A
[15] = 7 days after treatment, mesotrione 3 oz./A, pyridate 3 oz./A, combination 3 + 3 oz./A
[16] = 7 days after treatment, mesotrione 3 oz./A, pyridate 6.84 oz./A, combination 3 + 6.84 oz./A
[17] = 14 days after treatment, mesotrione 2 oz./A, pyridate 2 oz./A, combination 2 + 2 oz./A
[18] = 14 days after treatment, mesotrione 3 oz./A, pyridate 3 oz./A, combination 3 + 3 oz./A
[19] = 14 days after treatment, mesotrione 3 oz./A, pyridate 6.84 oz./A, combination 3 + 6.84 oz./A
[20] = 28 days after treatment, mesotrione 2 oz./A, pyridate 2 oz./A, combination 2 + 2 oz./A
[21] = 28 days after treatment, mesotrione 3 oz./A, pyridate 3 oz./A, combination 3 + 3 oz./A
[22] = 28 days after treatment, mesotrione 3 oz./A, pyridate 6.84 oz./A, combination 3 + 6.84 oz./A

| SMILES | Mean percentage of weed control (observed) ([1]; 7 days after treatment) | Mean percentage of weed control (observed) ([1]; 14 days after treatment) | Mean percentage of weed control (observed) [2, 5] | Mean percentage of weed control (observed) [2, 6] | Mean percentage of weed control (observed) [2, 7] | Mean percentage of weed control (observed) [2, 8] | Mean percentage of weed control (observed) [2, 9] | Mean percentage of weed control (observed) [2, 10] | Mean percentage of weed control (observed) [2, 11] | Mean percentage of weed control (observed) [2, 12] | Mean percentage of weed control (observed) [2, 13] | Mean percentage of weed control (observed) [3, 14] | Mean percentage of weed control (observed) [3, 15] | Mean percentage of weed control (observed) [3, 16] | Mean percentage of weed control (observed) [3, 17] | Mean percentage of weed control (observed) [3, 18] | Mean percentage of weed control (observed) [3, 19] | Mean percentage of weed control (observed) [3, 20] | Mean percentage of weed control (observed) [3, 21] | Mean percentage of weed control (observed) [3, 22] | other results |
| --- | --- | --- | --- | --- | --- | --- | --- | --- | --- | --- | --- | --- | --- | --- | --- | --- | --- | --- | --- | --- | --- |
| CS(=O)(=O)c1ccc(C(=O)C2C(=O)CCCC2=O)c([N+](=O)[O-])c1 [mesotrione, Mesotrione] | 65% | 78% | 43% | 68% | 65% | 35% | 63% | 78% | 38% | 60% | 75% | 73% | 73% | 68% | 75% | 73% | 80% | 73% | 68% | 85% | Mean percentage of weed control (observed) ([4]; 8 days after treatment): 53%; Mean percentage of weed control (observed) ([4]; 16 days after treatment): 55%; Mean percentage of weed control (observed) ([4]; 21 days after treatment): 55% |
| CCCCCCCCSC(=O)Oc1cc(Cl)nnc1-c1ccccc1 [pyridate, Pyridate] | 37% | 37% | 28% | 40% | 10% | 18% | 10% | 23% | 18% | 10% | 23% | 0% | 0% | 10% | 0% | 0% | 12% | 0% | 0% | 6% | Mean percentage of weed control (observed) ([4]; 8 days after treatment): 23%; Mean percentage of weed control (observed) ([4]; 16 days after treatment): 33%; Mean percentage of weed control (observed) ([4]; 21 days after treatment): 33% |
